Laboratory results reported in patent publication US8754099B2, “Oxadiazole beta carboline derivatives as antidiabetic compounds” (Merck Sharp & Dohme Corp, priority 2010, dated 2014).
pEC50, pIC50, pKi: −log10 of the molar value.

Experiments:
human SSTR3 [1] = molecular target: T1, human SSTR3 (Homo sapiens (Human), UniProt P32745); assay: SSTR3 functional antagonist assay (cAMP, FSK + SS-14, CHO cells); format: cell-based; conditions: 3.5 μM FSK + 100 nM SS-14; more active isomer
Method: The effects of compounds that bind to human and murine SSTR3 with various affinities on the functional activity of the receptor were assessed by measuring cAMP production in the presence of Forskolin (FSK) along or FSK plus SS-14 in SSTR3 expressing CHO cells. FSK acts to induce cAMP production in these cells by activating adenylate cyclases, whereas SS-14 suppresses cAMP production in the SSTR3 stable cells by binding to SSTR3 and the subsequent inhibition of adenylate cyclases via an alpha subunit of GTP-binding protein (Gαi).
To measure the antagonism activity of the compounds, we pre-incubated the human or mouse SSTR3 stable CHO cells with the compounds for 15 rain, followed by a one-hour incubation of the cells with a mixture of 3.5 μM FSK+100 nM SS-14 (in the continuous presence of the compounds). The amount of cAMP produced during the incubation was also quantified with the Lance cAMP assay. The antagonism activity of each compound was reflected both by % Inhibition (its maximum ability to block the action of SS-14) and an EC50 value which is the concentration of the test compound required to suppress the effect of 100 nM SS-14 by 50%. The % Inhibition of each compound was calculated using the following formula: % Inhibition=[1−(unknown cAMP/FSK+SS-14 cAMP)]×100

human SSTR3 [2] = molecular target: T1, human SSTR3; assay: SSTR binding filtration assay (SSTR3); conditions: (3-125I-Tyr11)-SRIF-14 radioligand, CHO-K1 membranes; more active isomer
Method: The receptor-ligand binding assays of all 5 subtype of SSTRs were performed with membranes isolated from Chinese hamster ovary (CHO)-K1 cells stably expressing the cloned human somatostatin receptors in 96-well format as previous reported. (Yang et al. PNAS 95:10836-10841, 1998, Birzin et al. Anal. Biochem. 307:159-166, 2002.) The stable cell lines for SSTR1-SSTR5 were developed by stably transfecting with DNA for all five SSTRs using Lipofectamine. Neomycin-resistant clones were selected and maintained in medium containing 400 μg/mL G418 (Rohrer et al. Science 282:737-740, 1998).
Binding assays were performed using (3-^125I-Tyr11)-SRIF-14 as the radioligand (used at 0.1 nM) and The Packard Unifilter assay plate. The assay buffer consisted of 50 mM TrisHCl (pH 7.8) with 1 mM EGTA, 5 mM MgCl2, leupeptin (10 μg/mL), pepstatin (10 μg/mL), bacitracin (200 μg/mL), and aprotinin (0.5 μg/mL). CHO-K1 cell membranes, radiolabeled somatostatin, and unlabeled test compounds were resuspended or diluted in this assay buffer. Unlabeled test compounds were examined over a range of concentrations from 0.01 nM to 10,000 nM. The Ki values for compounds were determined as described by Cheng and Prusoff Biochem Pharmacol. 22:3099-3108 (1973).

[3] = molecular target: hERG potassium ion channel (Homo sapiens (Human), UniProt Q12809); assay: MK-499 binding; conditions: more active isomer
human SSTR3 [4] = molecular target: T1, human SSTR3; assay: SSTR3 binding Scintillation Proximity Assay (SPA); conditions: 125I-SS14 radioligand, CHO-K1 membranes; more active isomer
Method: The receptor-ligand binding Scintillation Proximity Assay (SPA) (N. D. Cook. Drug Discovery Today 1 (1996), pp. 287-294) for SSTR3 was performed with membranes isolated from Chinese hamster ovary (CHO)-K1 cells stably expressing the cloned human somatostatin receptors. Binding assays were performed in 384 well format using ^125I-SS14 as the radioligand for SSTR3. The assay buffer consisted of 50 mM TrisHCl (pH 7.8) with 1 mM EGTA, 5 mM MgCl2, leupeptin (10 μg/mL), pepstatin (10 μg/mL), bacitracin (200 μg/mL), and aprotinin (0.5 μg/mL). CHO-K1 cell membranes were prebound to SPA beads and incubated with unlabelled test compounds and radiolabeled somatostatin in assay buffer. After 5 hours at room temperature, cpm/well was determined. Test compounds were examined in 10 point titrations over a range of concentrations from 0.00001 nM to 1200 nM. Percent inhibition was determined for each data point using binding in the presence of DMSO as the maximum achievable value. The results were plotted using 4 parameter fit and the inflection point reflecting 50% of the maximum inhibition was reported as the IC50.

T1 sequence (P32745 whole entry): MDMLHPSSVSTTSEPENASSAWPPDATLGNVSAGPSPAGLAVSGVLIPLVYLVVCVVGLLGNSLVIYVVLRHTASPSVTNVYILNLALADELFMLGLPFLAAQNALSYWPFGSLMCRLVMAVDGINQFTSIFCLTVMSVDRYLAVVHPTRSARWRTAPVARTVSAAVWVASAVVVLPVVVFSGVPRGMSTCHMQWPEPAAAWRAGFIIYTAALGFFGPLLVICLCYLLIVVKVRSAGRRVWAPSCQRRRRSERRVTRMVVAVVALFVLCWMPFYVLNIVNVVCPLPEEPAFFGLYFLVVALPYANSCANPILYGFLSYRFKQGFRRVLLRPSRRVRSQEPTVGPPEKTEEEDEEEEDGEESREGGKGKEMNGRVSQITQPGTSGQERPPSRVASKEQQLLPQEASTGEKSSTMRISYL
Sequence of hERG potassium ion channel (Q12809 whole entry): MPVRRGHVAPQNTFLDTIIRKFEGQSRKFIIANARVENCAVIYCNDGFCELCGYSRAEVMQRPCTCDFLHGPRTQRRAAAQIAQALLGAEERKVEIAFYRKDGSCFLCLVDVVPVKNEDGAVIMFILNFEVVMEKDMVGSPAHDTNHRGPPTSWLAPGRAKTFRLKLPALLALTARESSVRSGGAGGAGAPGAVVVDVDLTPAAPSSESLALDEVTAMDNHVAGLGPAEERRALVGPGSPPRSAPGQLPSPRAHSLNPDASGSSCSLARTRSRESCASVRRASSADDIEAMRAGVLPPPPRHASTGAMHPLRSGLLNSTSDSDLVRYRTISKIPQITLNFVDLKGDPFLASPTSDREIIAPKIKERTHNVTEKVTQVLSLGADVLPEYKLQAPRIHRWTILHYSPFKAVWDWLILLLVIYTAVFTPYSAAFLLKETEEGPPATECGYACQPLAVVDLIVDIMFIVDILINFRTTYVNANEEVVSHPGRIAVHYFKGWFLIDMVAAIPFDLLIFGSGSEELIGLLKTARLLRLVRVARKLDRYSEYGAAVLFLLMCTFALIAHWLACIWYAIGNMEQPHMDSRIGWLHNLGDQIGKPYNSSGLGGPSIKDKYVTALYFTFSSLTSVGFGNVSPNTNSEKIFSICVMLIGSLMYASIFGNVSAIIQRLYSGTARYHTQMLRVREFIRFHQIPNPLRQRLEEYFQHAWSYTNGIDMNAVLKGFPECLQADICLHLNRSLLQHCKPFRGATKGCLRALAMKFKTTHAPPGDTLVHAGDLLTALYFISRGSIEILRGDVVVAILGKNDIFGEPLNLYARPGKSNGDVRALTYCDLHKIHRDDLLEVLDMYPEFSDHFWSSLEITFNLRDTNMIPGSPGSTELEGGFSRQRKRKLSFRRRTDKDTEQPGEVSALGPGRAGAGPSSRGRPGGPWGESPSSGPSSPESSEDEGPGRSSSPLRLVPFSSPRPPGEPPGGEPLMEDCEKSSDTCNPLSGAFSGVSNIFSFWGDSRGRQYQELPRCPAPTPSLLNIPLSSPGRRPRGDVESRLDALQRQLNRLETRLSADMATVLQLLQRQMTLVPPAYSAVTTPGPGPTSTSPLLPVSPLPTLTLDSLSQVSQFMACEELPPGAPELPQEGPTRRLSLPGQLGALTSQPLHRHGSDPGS

| Compound | pEC50 (human SSTR3 [1]) | pKi (human SSTR3 [2]) | pIC50 (human SSTR3 [4]) | pIC50 [3] |
| --- | --- | --- | --- | --- |
| CCOCC1(c2nnc(CCOC)o2)N[C@@H](c2nc(-c3ccc(F)cn3)c[nH]2)Cc2c1[nH]c1ccccc21 (stereo partly shown) [Example 5] | 8.46 | 8.57 | – | 4.78 |
| CCOCC1(c2nnc(CCOC)o2)N[C@@H](c2nc(-c3ccc(F)c(C)n3)c[nH]2)Cc2c1[nH]c1ccccc21 (stereo partly shown) [Example 7] | 9.05 | 9.05 | – | 4.63 |
| CCOCC1(c2nnc(C(C)C)o2)N[C@@H](c2nc(-c3ccc(F)cn3)c[nH]2)Cc2c1[nH]c1ccccc21 (stereo partly shown) [Example 9] | 8.29 | 8.60 | – | 4.69 |
| CCOCC1(c2nnc(C(C)C)o2)N[C@@H](c2nc(-c3ccc(F)c(C)n3)c[nH]2)Cc2c1[nH]c1ccccc21 (stereo partly shown) [Example 14] | 8.89 | 9.40 | – | 4.73 |
| [2H]C([2H])([2H])COCC1(c2nnc(C)o2)N[C@@H](c2nc(-c3ccc(F)c(C)n3)c[nH]2)Cc2c1[nH]c1ccccc21 (stereo partly shown) [Example 16] | 8.07 | 9.22 | – | 4.65 |
| COC1CC(C2(c3nnc(C)o3)N[C@@H](c3nc(-c4ccc(F)c(C)n4)c[nH]3)Cc3c2[nH]c2ccccc32)C1 (stereo partly shown) [Example 17] | 8.77 | 8.74 | – | 4.67 |
| Cc1nc(-c2c[nH]c([C@H]3Cc4c([nH]c5ccccc45)C(c4nnc(C(C)C)o4)(C4CCOCC4)N3)n2)ccc1F (stereo partly shown) [Example 19] | 9.15 | 9.22 | – | 4.80 |
| Cc1nnc(C2(C3CCCO3)N[C@@H](c3nc(-c4ccc(F)c(C)n4)c[nH]3)Cc3c2[nH]c2ccccc32)o1 (stereo partly shown) [Example 20] | 8.40 | 9.05 | 8.34 | 4.77 |
| [2H]C([2H])([2H])OC1CC2C(C1)C2C1(c2nnc(C)o2)N[C@@H](c2nc(-c3ccc(F)c(C)n3)c[nH]2)Cc2c1[nH]c1ccccc21 (stereo partly shown) [Example 22] | 8.80 | – | 8.92 | 4.64 |

Continued by rising pEC50 (human SSTR3 [1]), values first:

| pEC50 (human SSTR3 [1]) | pKi (human SSTR3 [2]) | pIC50 (human SSTR3 [4]) | Compound | pIC50 [3] |
| --- | --- | --- | --- | --- |
| 8.43 | 8.85 | – | COCCOCC1(c2nnc(C(C)(C)C)o2)N[C@@H](c2nc(-c3ccc(F)cn3)c[nH]2)Cc2c1[nH]c1ccccc21 (stereo partly shown) [Example 8] | 4.71 |
| 8.51 | – | 8.77 | Cc1nnc(C2(C3CCCCO3)N[C@@H](c3nc(-c4ccc(F)c(C)n4)c[nH]3)Cc3c2[nH]c2ccccc32)o1 (stereo partly shown) [Example 21] | 4.84 |
| 8.60 | 8.59 | – | CCOCC1(c2nnc(C(C)(C)C)o2)N[C@@H](c2nc(-c3ccc(F)cn3)c[nH]2)Cc2c1[nH]c1ccccc21 (stereo partly shown) [Example 6] | 4.75 |
| 8.62 | 8.57 | – | COCCOCC1(c2nnc(C3CCOCC3)o2)N[C@@H](c2nc(-c3ccc(F)cn3)c[nH]2)Cc2c1[nH]c1ccccc21 (stereo partly shown) [Example 10] | 4.63 |
| 9.00 | 9.40 | – | COCCOCC1(c2nnc(C)o2)N[C@@H](c2nc(-c3ccc(F)c(C)n3)c[nH]2)Cc2c1[nH]c1ccccc21 (stereo partly shown) [Example 12] | 4.56 |
| 9.15 | 9.30 | – | CCOCC1(c2nnc(C3(C)CCCO3)o2)N[C@@H](c2nc(-c3ccc(F)c(C)n3)c[nH]2)Cc2c1[nH]c1ccccc21 (stereo partly shown) [Example 11] | 4.72 |
| 9.22 | 9.40 | – | COCCOCC1(c2nnc(C(C)C)o2)N[C@@H](c2nc(-c3ccc(F)c(C)n3)c[nH]2)Cc2c1[nH]c1ccccc21 (stereo partly shown) [Example 15] | 4.72 |
| 9.22 | 9.52 | – | COC1CCC(C2(c3nnc(C)o3)NC(c3nc(-c4ccc(F)c(C)n4)c[nH]3)Cc3c2[nH]c2ccccc32)CC1 (stereo not shown) [Example 18] | 4.76 |
| 9.30 | 9.30 | – | COCCOCC1(c2nnc(C3CCOCC3)o2)N[C@@H](c2nc(-c3ccc(F)c(C)n3)c[nH]2)Cc2c1[nH]c1ccccc21 (stereo partly shown) [Example 13] | 4.71 |
